# Earlier results as cited in US7655259B2, “Delayed release carnitine” (SIGMA-TAU Industrie Farmaceutiche Riunite S.p.A, priority 1993, dated 2010).
# Experiments:
# [1] = given orally, carnitine deficient patients
# [2] = in the human
SMILES,conversion to L-carnitine [1],half-life [2]
"C[N+](C)(C)CCCC(=O)[O-] [GBB, Gamma-butyrobetaine]",readily converted to L-carnitine,
"C[N+](C)(C)CC(O)CC(=O)[O-] [L-carnitine, 3-hydroxy-4-(trimethylamino-)butyrate]",,approximately 30 minutes
